Measurements: article PMC3994029 (PLoS ONE, 2014)
One block for each compound: values may come before it.

Tests used:
Experiment in all cases: competition of […]-glucose uptake by germinating conidia
Assay type in all cases: cell-based
MstC (SorA) [1] = biological target: T1, MstC (SorA) (Aspergillus nidulans, UniProt Q5AYG1); conditions: wild type V004 conidia germinated on glycerol; 16 µM 14C-glucose, 200-fold excess competitor (3.2 mM)
T1 construct: gene ANIA_06669; native full-length protein, 534 aa, in intact germinating conidia (4 h, glycerol)
T1 sequence (Q5AYG1 1-534): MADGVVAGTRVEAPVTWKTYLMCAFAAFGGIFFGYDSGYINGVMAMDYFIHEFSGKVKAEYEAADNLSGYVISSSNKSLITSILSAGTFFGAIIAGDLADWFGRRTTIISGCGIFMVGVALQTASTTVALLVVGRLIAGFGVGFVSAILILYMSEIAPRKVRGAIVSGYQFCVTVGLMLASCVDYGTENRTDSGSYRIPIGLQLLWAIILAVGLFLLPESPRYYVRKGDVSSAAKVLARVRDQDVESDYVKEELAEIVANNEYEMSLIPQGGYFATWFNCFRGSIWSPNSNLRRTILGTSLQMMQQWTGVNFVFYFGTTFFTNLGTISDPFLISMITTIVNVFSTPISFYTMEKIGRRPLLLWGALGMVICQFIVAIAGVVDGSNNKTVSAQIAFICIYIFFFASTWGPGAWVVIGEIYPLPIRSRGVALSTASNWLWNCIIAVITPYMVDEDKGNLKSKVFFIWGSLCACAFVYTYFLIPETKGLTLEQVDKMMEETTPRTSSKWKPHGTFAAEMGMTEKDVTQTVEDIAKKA

MstA = biological target: T2, MstA (Aspergillus nidulans, UniProt Q5ASJ3); conditions: V152 conidia germinated on glycerol; 90 µM 14C-glucose, 200-fold excess competitor (18 mM); minor low-affinity background uptake
T2 construct: gene ANIA_08737; full-length protein, 527 aa, homologous expression from mstC promoter in mstA mstC double-deleted A. nidulans; intact germinating conidia

MstC (SorA) [2] = biological target: T1, MstC (SorA); conditions: wild type V004 conidia germinated on glycerol; 16 µM 14C-glucose, 200-fold excess competitor (3.2 mM); remark: listed apart in the source

T2 sequence (Q5ASJ3 entry or part of it): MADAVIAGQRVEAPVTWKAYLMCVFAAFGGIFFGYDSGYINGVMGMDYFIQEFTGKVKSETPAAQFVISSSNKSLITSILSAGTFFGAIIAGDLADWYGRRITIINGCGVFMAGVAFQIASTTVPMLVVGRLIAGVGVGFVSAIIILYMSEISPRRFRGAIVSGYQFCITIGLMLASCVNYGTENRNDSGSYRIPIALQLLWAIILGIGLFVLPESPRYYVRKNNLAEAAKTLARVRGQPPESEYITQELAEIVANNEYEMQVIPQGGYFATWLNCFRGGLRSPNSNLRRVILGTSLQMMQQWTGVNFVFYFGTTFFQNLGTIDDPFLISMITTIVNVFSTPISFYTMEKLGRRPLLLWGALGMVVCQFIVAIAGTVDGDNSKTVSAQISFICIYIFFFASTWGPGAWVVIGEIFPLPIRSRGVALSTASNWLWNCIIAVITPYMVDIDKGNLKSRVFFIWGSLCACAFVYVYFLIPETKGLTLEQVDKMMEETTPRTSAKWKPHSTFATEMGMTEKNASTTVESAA

SMILES: CO[C@H]1[C@H](O)[C@@H](CO)OC(O)[C@@H]1O (stereo partly drawn) [3-O-methyl glucose]
relative uptake rate, % of control (MstC (SorA) [1]): most effective competitor, along with the glucose analogues 2-DOG and 3-O-methyl glucose

SMILES: OC[C@H]1OC(O)[C@H](O)[C@@H](O)[C@H]1O (stereo partly drawn) [galactose]
relative uptake rate, % of control (MstA): xylose and galactose may also be minor physiological sugar substrates for this transporter

SMILES: OC[C@H]1OC(O)C[C@@H](O)[C@@H]1O (stereo partly drawn) [2-DOG]
relative uptake rate, % of control (MstC (SorA) [1]): most effective competitor, along with the glucose analogues 2-DOG and 3-O-methyl glucose

SMILES: OC1OC[C@@H](O)[C@H](O)[C@H]1O (stereo partly drawn) [xylose]
relative uptake rate, % of control (MstA): xylose and galactose may also be minor physiological sugar substrates for this transporter

% reduction of uptake (MstC (SorA) [2]): 80%
SMILES: OC[C@H]1OC(O)[C@@H](O)[C@@H](O)[C@@H]1O (stereo partly drawn) [mannose]
relative uptake rate, % of control (MstA): mannose is the most effective substrate of those studied in competing against glucose uptake
